In PubChem BioAssay AID720600 (Broad Institute, 2013):
Results filed as inconclusive are left out.

System: SNB-19 viability, Alamar Blue fluorescence, 8-48 h
Test: SNB-19 glioblastoma cell viability loss, dose response, HRAS target identification, Alamar Blue fluorescence, 8/24/48 h, dry powder (AID 720600)

Structure (SMILES)	AC50 (measured here: 24 h treatment)	AC50 (measured here: 48 h treatment)	AC50 (measured here: 8 h treatment)
C#CCCCC(=O)NCCOCCOCCOc1ccc(N(C(=O)CCl)C(C(=O)NCCc2ccccc2)c2cccs2)cc1Cl (configuration not stated)	946 nM	2780 nM	–
COc1ccc(N(C(=O)CCl)C(C(=O)NCCc2ccccc2)c2cccs2)cc1Cl (configuration not stated)	112 nM	149 nM	77.1 nM
CC(C)(C)OC(=O)NCCOCCOCCOc1ccc(N(C(=O)CCl)C(C(=O)NCCc2ccccc2)c2cccs2)cc1Cl (configuration not stated)	296 nM	353 nM	–
